Experimental findings from patent publication US20230339882A1, “SHP2 INHIBITOR AND COMPOSITION AND APPLICATION THEREOF” (Betta Pharmaceuticals Co., Ltd., priority 2020, published 2023) are described below.

A short description of series [1]: In vitro metabolic stability in liver microsomes, mouse. Type of series: in vitro ADME. To be noted: for microsomal CLint at 2 µM: pH 7.3, read-out: CLint (µL/min/mg protein) mouse. (In general: Liver microsomes are vesicles of endoplasmic reticulum, rich in cytochrome P450 enzymes.)
The nature of series [2]: In vitro metabolic stability in liver microsomes, rat. Type of series: in vitro ADME. The following applies: for microsomal CLint at 2 µM: pH 7.3, read-out: CLint (µL/min/mg protein) rat. The procedure:
(§1) Example D: In Vitro Metabolic Stability of Human and Rat Liver Microsomes Test Buffer Preparation
(§2) Dissolve 1900 mg of MgCl2 in 400 mL of ultrapure water.
(§3) Dissolve 17.42 g K2HPO4 and 13.65 g KH2PO4 into 1000 mL of ultrapure water, respectively. Mix a certain proportion of K2HPO4 and KH2PO4 to adjust the pH to 7.30 ± 0.10.
(§4) Prepare a solution of 10 ng/mL labetalol and 10 ng/mL glyburide in acetonitrile and store at 4° C.
(§5) Prepare 10 mM verapamil (positive control) and test article stock solutions in DMSO. Then, with MeOH/ACN/H2O solution (1:1:2 by volume), diluted to 50 µM and 200 µM working solutions, respectively.
(§6) experiment procedure: • 1) Add 40 µL MgCl2 and 306 µL PBS to 96 wells (set blank control group, positive control group, test compound sample group, and negative control group at the same time) • 2) Add 4 µL of compound working solution to each well (4 µL of PBS buffer for blank group) (Note: the final concentration of DMSO volume in the system is ≤ 0.5%) • 3) Add 10 µL of liver microsomes (concentration: 20 mg/mL) to each well, mix well, and pre-incubate at 37° C. for 10 minutes. • 4) Add 40 µL of 10 mM NADPH working solution to each well to start the reaction (add equal volume of PBS buffer for blank control group and negative control group respectively), the total reaction volume is 400 µL. • 5) Take out 50 µL samples from the above reaction solution at 0, 5, 15, and 45 minutes, and add 400 µL of reaction stop solution to stop the reaction • 6) Shake the sample after the termination of the reaction on a shaker for 5 minutes. • 7) Centrifuge the sample at 3200 rcf for 10 minutes. After the centrifugation is complete, transfer 50 µL of the supernatant to 200 µL of H2O for dilution for LC-MS/MS analysis.
(§7) Calculations of t½ and CLint are performed using the first-order kinetic equations: […]
(§8) where k represents the elimination constant, calculated from a log-linear plot of percentage remaining versus time. t½ represents half-life. Cprotein is the concentration of liver microsomes.

The nature of series [3]: In vitro metabolic stability in liver microsomes, dog. Type of series: in vitro ADME. To be noted: for microsomal CLint at 2 µM: dog, microsomes, pH 7.3.
Series [4] can be described thus: In vitro metabolic stability in liver microsomes, monkey. Type of series: in vitro ADME. To be noted: for microsomal CLint at 2 µM: pH 7.3, read-out: CLint (µL/min/mg protein) monkey.
A short description of series [5]: In vitro metabolic stability in liver microsomes, human. Type of series: in vitro ADME. The following applies: for microsomal CLint at 2 µM: pH 7.3, read-out: CLint (µL/min/mg protein) human. The procedure:
as §1, §2, §3, §4, §5, §6, §7, §8

The subject of series [6] is lung cancer cells NCI-H358. In words: Cell proliferation assay, CELL TITER-GLO (CTG) luminescence, NCI-H358. Type of series: cell-based. To be noted: cultured for 96 hrs. The procedure: (§9) Example B: Cell Proliferation Assay
(§10) The effects of the compounds of the invention on the proliferation of leukemia cells MV-4-11 and lung cancer cells NCI-H358 were evaluated using in vitro cell assays. The detection method used in the experiment is the CELL TITER-GLO (CTG) luminescence method, which can detect the number of viable cells by quantifying ATP. Because ATP participates in a variety of enzymatic reactions in vivo, it is an indicator of the metabolism of living cells, and its content directly reflects the number and state of cells. During the experiment, CellTiter-Glo™ reagent was added to the cell culture medium to measure the luminescence value. The value is proportional to the amount of ATP, and ATP is positively related to the number of living cells, so the cell viability can be examined by detecting the ATP content.
(§11) experiment procedure: • (1) Cell plating: • Take a bottle of MV-4-11 cells in logarithmic growth phase, resuspend the cells by centrifugation and count them. After adjusting the cell density, they were seeded into a 96-well plate (Corning #3917). After culturing in a 5% CO2 incubator for 24 hrs, the compound of the present invention was added for treatment; • Take a bottle of NCI-H358 cells in logarithmic growth phase, digest and resuspend the cells, count them, adjust the cell density, and inoculate them into a 96-well transparent ultra-low adsorption cell culture plate (Corning #3474), inoculate 2000 cells per well. The plate was placed in an incubator at 37° C. and 5% CO2 for 24 hrs, and then the compound of the present invention was added for treatment; • (2) Cell compound treatment: • An appropriate amount of the compound of the present invention was prepared for cell treatment. The final concentration of the compound from high to low was 1000 nM, 333.3 nM, 111.1 nM, 37.04 nM, 12.35 nM, 4.115 nM, 1.372 nM, 0.4572 nM, 0.1524 nM, and 0 nM. The plate was placed in a 37° C., 5% CO2 incubator for 120 hrs. Only adding medium without cell wells was set as the blank group; the group with compound concentration of 0 nM was the zero-adjusting group. • (3) CTG detection: • After NCI-H358 cells were cultured for 96 hrs, 50 µL of CellTiter-Glo® Luminescent Cell Viability Assay solution was added to each well, shaken gently for 2 mins, and incubated at room temperature for 10 mins. The cell reaction system was transferred to a white-bottomed 96-well plate. Read the detection value of each well on a multi-function microplate reader. • After MV-4-11 cells were cultured for 120 hrs, 50 µL of CellTiter-Glo® Luminescent Cell Viability Assay solution was added to each well, gently shaken for 2 mins, and incubated at room temperature for 10 mins. Check the value. • (4) Data analysis: • Calculate the inhibition rate from the luminescence value readings, • [formula]
(§12) The log(inhibitor) vs. response-Variable slope of GraphPad Prism was fitted to dose-response curves and IC50s of compounds that inhibited cell proliferation were calculated.
On the technique in general: Cellular ATP, detected with luciferase, serves as a proxy for viable cell number.

Another series relates to leukemia cells MV-4-11. In words: Cell proliferation assay, CELL TITER-GLO (CTG) luminescence, MV-4-11. Type of series: cell-based. The procedure: as §9, §10, §11, §12
For another series, the target named is SHP2 (Homo sapiens (Human), UniProt Q06124). In words: SHP2 allosteric inhibitory enzyme activity assay (DiFMUP fluorescence). Type of series: biochemical. To be noted: read-out: SHP2 enzymatic activity IC50. The source says:
Example A: SHP2 Allosteric Inhibitory Enzyme Activity Assay
SHP2 is allosterically activated by binding of a bis-tyrosyl-phosphorylated peptide to its Src homology 2 (SH2) domain. This later activation step results in the release of the autoinhibitory interface of SHP2, which in turn activates the SHP2 protein tyrosine phosphatase (PTP) and is available for substrate recognition and reaction catalysis. The catalytic activity of SHP2 was monitored using the surrogate DiFMUP in a rapid fluorescence assay format.
experiment procedure: • (1) Compound preparation: • The compounds of the present invention (10 mM stock solution) were diluted to appropriate times with 100% DMSO, and the final test concentrations of the compounds of the present invention were 10 µM, 3.3333 µM, 1.1111 µM, 0.3704 µM, 0.1235 µM, 0.0412 µM, 0.0137 µM, 0.0046 µM, 0.0015 µM, 0.00 µM; • (2) Prepare the enzyme reaction working solution: • Perform SHP2 enzymatic assays in 96-well black polystyrene plates (flat bottom, low flange, non-binding surface) (Perki Elmer, Cat#6005270) at room temperature using a final reaction volume of 50 µL and the following assay buffer conditions: 60 mM HEPES, 75 mM NaCl, 75 mM KCl, 0.05% BRIJ-35, 1 mM EDTA, 5 mM DTT. • (3) Enzyme-catalyzed reaction and data monitoring: • Add the compound of the present invention to the corresponding 96-well plate, and set the blank test well without compound and enzyme only with buffer. Thaw SHP2 Activating Peptide (IRS1_pY1172(dPEG8)pY1222) on ice, add 25 µM to each well, then add 0.2 ng of SHP2 protein sample to the corresponding well plate and incubate at room temperature for 1 hour. The surrogate substrate DiFMUP (Invitrogen, Cat #D6567) was added to the reaction and allowed to react for 1 hour at room temperature. Fluorescence signals were monitored using a microplate reader (Envision, Perki Elmer) using excitation and emission wavelengths of 340 nm and […], respectively. • (4) Data analysis: • Calculation Formula: • [formula]
Among them: Conversion_sample is the conversion rate reading of the sample; Conversion_min is the average value of blank control wells, representing the conversion rate readings of wells without enzymatic activity; Conversion_max is the mean ratio of positive control wells, representing the conversion rate readings of wells without compound inhibition. The log(inhibitor) vs. response-Variable slope of the analysis software GraphPad Prism was used to fit the dose-response curve, and the IC50 value of the compound for the enzymatic activity was calculated.

The mark [7] stands for this setting: Homo sapiens, NCI-H358, ultra-low adsorption plate.
Setting [8] is: Homo sapiens, MV4-11, cultured for 120 hrs.

`N[C@@H]1c2ccccc2CC12CCN(c1ncc(C#CCOc3ccc(C(F)(F)F)cc3)nc1CO)CC2` [Compound A14, (S)-(3-(1-amino-1,3-dihydrospiro[indene-2,4′-piperidin]-1′-yl)-6-(3-(4-(trifluoromethyl)phenoxy)prop-1-yn-1-yl)pyrazin-2-yl)methanol]: the microsomal CLint at 2 µM in series [1] is 6.4 µL/min/mg; in series [2], 1.8 µL/min/mg; in series [3] it was 7.8 µL/min/mg; in series [4], 3.1 µL/min/mg; in series [5], 1.4 µL/min/mg.
For `Nc1ncc(OCC#Cc2cnc(N3CCC4(CC3)Cc3ccccc3[C@H]4N)c(CO)n2)cn1` [Compound A19, (S)-(3-(1-amino-1,3-dihydrospiro[indene-2,4′-piperidin]-1′-yl)-6-(3-( (2-Aminopyrimidine-5-yl)oxy)prop-1-yn-1-yl)pyrazin-2-yl)methanol], the microsomal CLint at 2 µM in series [1] is 21.4 µL/min/mg; in series [2] it was 31.6 µL/min/mg; in series [3] it was 18.3 µL/min/mg; in series [4], 21.2 µL/min/mg; in series [5] it was 8.2 µL/min/mg.
For orientation: IC50 means the concentration that inhibits the measured activity by half. Take `Cc1cc(OCC#Cc2cnc(N3CCC4(CC3)Cc3ccccc3[C@H]4N)c(CO)n2)ccc1C(N)=O` [Compound A74, (S)-4-((3-(5-(1-amino-1,3-dihydrospiro[indene-2,4′-piperidin]-1′-yl)-6-(hydroxymethyl)pyrazin-2-yl)prop-2-yn-1-yl)oxy)-2-methylbenzamide]: the half-maximal inhibitory concentration (IC50) in series [6] (setting [7]) worked out at 6.4 nM; in the series with leukemia cells MV-4-11 (setting [8]), 1.7 nM; on SHP2 it was 1.1 nM.
For `N[C@@H]1c2ccccc2CC12CCN(c1ncc(C#CCOc3ccc(O)cn3)nc1CO)CC2` [Compound A75, (S)-6-((3-(5-(1-amino-1,3-dihydrospiro[indene-2,4′-piperidin]-1′-yl)-6-(hydroxymethyl)pyrazin-2-yl)prop-2-yn-1-yl)oxy)pyridin-3-ol], in that order: 78 nM, 7.3 nM and 7.8 nM.
For the molecule `N[C@@H]1c2ccccc2CC12CCN(c1ncc(C#CCOc3ccc(C(=O)NC4CC4)cc3)nc1CO)CC2` [Compound A76, (S)-4-((3-(5-(1-amino-1,3-dihydrospiro[indene-2,4′-piperidin]-1′-yl)-6-(hydroxymethyl)pyrazin-2-yl)prop-2-yn-1-yl)oxy)-N-cyclopropyl benzamide], the IC50 in series [6] (ultra-low adsorption plate) worked out at 19 nM; in the series with leukemia cells MV-4-11 (cultured for 120 hrs) it was 3.3 nM; on SHP2 it was 3.4 nM.
As to `Cn1nccc1Nc1ccc(OCC#Cc2cnc(N3CCC4(CC3)Cc3ccccc3[C@H]4N)c(CO)n2)cc1` [Compound A77], the IC50 was found to be 36 nM in series [6] (ultra-low adsorption plate), 11 nM in the series with leukemia cells MV-4-11 (cultured for 120 hrs) and 5.9 nM on SHP2.
Regarding “(S)-4-((3-(5-(1-amino-1,3-dihydro spiro[indene-2,4′-piperidin]-1′-yl)-6-(hydroxymethyl)pyrazin-2-yl)pr op-2-yn-1-yl)oxy)-N-picoline amide [Compound A40]”, the “CLint (µL/min/mg protein) mouse” value in series [1] amounted to 11.0 µL/min/mg protein. Besides, the “CLint (µL/min/mg protein) rat” value in series [2] amounted to 11.7 µL/min/mg protein. For the same molecule, the “CLint (µL/min/mg protein) dog” value in series [3] (dog liver microsomes) worked out at 7.8 µL/min/mg protein. Moreover, in series [4], the “CLint (µL/min/mg protein) monkey” value was found to be 15.5 µL/min/mg protein. The “CLint (µL/min/mg protein) human” value in series [5] was 11.0 µL/min/mg protein.
In the case of “(S)-(3-(1-amino-1,3-dihydrospiro[ indene-2,4′-piperidin]-1′-yl)-6-(3-( 3,4-dimethoxyphenoxy)prop-1-yn-1-y 1)pyrazin-2-yl)methanol [Compound A11]”, the IC50 in series [6] (ultra-low adsorption plate) amounted to 6.3 nM; with leukemia cells MV-4-11 (cultured for 120 hrs), 2.6 nM; on SHP2 it was 1.5 nM.
As to “(S)-(3-(1-amino-1,3-dihydrospiro[ indene-2,4′-piperidin]-1′-yl)-6-(3-( 4-morpholinoloxy)prop-1-yn-1-yl )pyrazin-2-yl)methanol [Compound A20]”, the IC50 was determined as 14 nM in series [6] (ultra-low adsorption plate), 12 nM in the series with leukemia cells MV-4-11 (cultured for 120 hrs) and 3.8 nM on SHP2.
Taken in the same sequence, the figures for “(S)-(3-(1-amino-1,3-dihydrospiro[ indene-2,4′-piperidin]-1′-yl)-6-(3-( benzo[d][1,3]dioxyol-5-oxy)prop-1-yn-1-yl)pyrazin-2-yl)methanol [Compound A28]” were 7 nM, 6.1 nM and 1.5 nM.
